From patent US5616684A, “Cyclic peptides and use thereof” (priority 1991, dated 1997) come the findings set out here.

Non-standard residues stand in square brackets, D forms with d. Residues, ends and D or L forms follow the SMILES beside them. *: point of attachment. NMeW = CN[C@@H](Cc1c[nH]c2ccccc12)C(=O)O; NMeF = CN[C@@H](Cc1ccccc1)C(=O)O; dTle = CC(C)(C)[C@@H](N)C(=O)O; NMeL = CN[C@@H](CC(C)C)C(=O)O; X3 = O=C(Cc1c[nH]c2ccccc12)*; Orn = NCCC[C@H](N)C(=O)O; PhAc = O=C(Cc1ccccc1)*; Sar = CNCC(=O)O

The target of assay [1] is T1, endothelin receptor A (ETA) (Sus scrofa, UniProt Q29010).
T1 construct: A membrane fraction prepared from the porcine heart; from tissue; host or cells: porcine heart membrane fraction
T1 sequence (Q29010 21-427): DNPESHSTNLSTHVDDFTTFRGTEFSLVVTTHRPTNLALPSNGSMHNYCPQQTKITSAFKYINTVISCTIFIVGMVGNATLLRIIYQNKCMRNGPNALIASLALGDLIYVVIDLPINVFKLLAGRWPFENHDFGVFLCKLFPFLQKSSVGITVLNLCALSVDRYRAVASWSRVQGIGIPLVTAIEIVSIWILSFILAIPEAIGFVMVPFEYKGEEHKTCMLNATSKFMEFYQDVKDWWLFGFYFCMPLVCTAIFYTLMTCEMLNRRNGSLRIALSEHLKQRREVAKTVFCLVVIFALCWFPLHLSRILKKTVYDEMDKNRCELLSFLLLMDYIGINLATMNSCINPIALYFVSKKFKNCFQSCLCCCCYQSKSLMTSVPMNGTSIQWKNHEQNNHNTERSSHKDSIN
The assay can be described thus: Assay of Affinity for Receptor (1): Binding Activity on ETA Receptor. Details: key to Binding Activity on ET Receptor (R. act.) ETA: relative binding activity; reference cyclic pentapeptide = 1.0. The following applies: specific activity, binding activity of cyclo[-D-Glu-Ala-D-aIle-Leu-D-Trp-] taken as 1.0; porcine heart membrane fraction, 125I-labeled endothelin-1, 25° C., 1 hour. The protocol:
Assay of Affinity for Receptor (1) . . . Binding Activity on ETA Receptor
A membrane fraction prepared from the porcine heart was diluted to 0.15 mg/ml by using a buffer solution for assay, and 100 μl of the resulting suspension of the membrane fraction was poured into each assay tube to use for assay. To this suspension of the membrane fraction was added 2 μl of 5 nM ^125 I-labeled endothelin-1 solution. Further, 3 μl of a test peptide solution was added thereto, followed by incubation at a temperature of 25° C. for 1 hour. Then, the resulting suspension was diluted with 900 μl of the buffer solution for assay cooled with ice, and thereafter separated into a supernatant and a precipitate by centrifugation at 12,000×g for 10 minutes. Cell membranes and an endothelin receptor A (ETA) embedded therein were contained in the precipitate, and radioactive iodine-labeled endothelin combined with the receptor was also recovered in the precipitate. Accordingly, the amount of radioactive iodine-labeled endothelin combined with the endothelin receptor A (ETA) was determined by measuring the amount of radioactive iodine contained in the precipitate with a gamma-ray counter. The cyclic pentapeptide described in Japanese Patent Application No. 2-413828/1990, cyclo[-D-Glu-Ala-D-aIle-Leu-D-Trp-], was used as a control compound. The numerical value of ETA shown in Table 1 is the value of specific activity, taking the binding activity of this cyclic pentapeptide on the receptor A as 1.0. The binding activity (IC50) of this cyclic pentapeptide on the ETA receptor is 2×10^-6 M.

The subject of assay [2] is ETB receptor (guinea pig kidney crude receptor membrane fraction). The assay can be described thus: ETB Radio Receptor Assay *2. The class given is binding. The following applies: relative activity (Example 8 given as 100), 125I-endothelin-1, 37° C., 90 minutes. The protocol: ETB Radio Receptor Assay *2
In the endothelin radio receptor assay, guinea pigs' kidneys were used. Guinea pigs (Std Hartrey, male 250 g, Japan SLC Ltd.) were made to have a cerebral concussion and sacrificed by bleeding from carotid arteries to pick up the kidneys and removed fat therefrom to prepare the kidneys. The obtained kidneys were sliced and homogenized by politron homogenizer in 20 ml of 50 mM Tris-HCl buffer [pH 7.4; 20 mM NaHCO3, 0.1 mM PMSF (Phenylmethylsulfonyl Fluoride), 1 mM EDTA (Ethylenediaminetetraacetic acid)] per one kidney. The homogenized kidney was applied to a centrifugation at 1,000×g for 15 minutes and the supernatant was further applied to a centrifugation for 20 minutes at 30,000×g. The resulting precipitate was twice washed with 50 mM Tris-HCl buffer (pH 7.4) containing 0.1 mM PMSF, 1 mM EDTA. The resultant was stored at -80 ° C. as a crude receptor membrane fraction and was used as the suspension in the following buffer when necessary.
740 Bq of ^125 I-endothelin-1 (81.4 TBq/mmol, Du Pont, USA) as a radio ligand, the crude membrane fraction (2.1 μg protein) and samples were added to the following buffer. The reaction was performed at 37° C., for 90 minutes in 0.2 ml of the buffer [50 mM Tris-HCl buffer (pH 7.4) containing 0.1 mM PMSF, 1 mM EDTA, 0.2% bovine serum albumin].
The reaction was stopped by fast filtration on a glass filter (GF/B, Wattman, USA) by Cell Harvestor (290 PHD, Cambridge-Technology, Great Britain), and the filter was three times washed with 50 mM Tris-HCl buffer (pH 7.4). Radio activity remained on the filter was assayed by a gamma counter.

On to `CC(C)C[C@@H]1NC(=O)[C@@H](CC(C)C)NC(=O)[C@H](CC(=O)O)NC(=O)[C@H](C(C)C)NC(=O)[C@@H](CC(=O)O)NC(=O)[C@@H](Cc2c[nH]c3ccccc23)NC1=O` [Example 17, Cyclo[--D--Asp--Val--Asp--D--Leu--Leu--D--Trp--]] (cyclo(D[dL]L[dW][dD]V)), for which the “Binding Activity on ET Receptor (R. act.) ETA” value in assay [1] is on record as 3.7. Besides, the “Binding Activity on ET Receptor (R. act.) ET8 *2” value in assay [2] is listed as 22.

`CC(C)C[C@@H]1NC(=O)[C@@H](CC(C)C)NC(=O)[C@H](CC(=O)O)NC(=O)[C@H](CC(C)C)NC(=O)[C@@H](CC(=O)O)NC(=O)[C@@H](Cc2c[nH]c3ccccc23)NC1=O` [Example 18, Cyclo[--D--Asp--Leu--Asp--D--Leu--Leu--D--Trp--]] (cyclo(D[dL]L[dW][dD]L)): the “Binding Activity on ET Receptor (R. act.) ETA” value in assay [1] came out at 13. The “Binding Activity on ET Receptor (R. act.) ET8 *2” value in assay [2] is listed as 2.2.

Regarding `CC(C)C[C@@H]1NC(=O)[C@@H](CC(C)C)NC(=O)[C@H](CC(=O)O)NC(=O)[C@H](Cc2ccccc2)NC(=O)[C@@H](CC(=O)O)NC(=O)[C@@H](Cc2c[nH]c3ccccc23)NC1=O` [Example 19, Cyclo[--D--Asp--Phe--Asp--D--Leu--Leu--D--Trp--]] (cyclo(D[dL]L[dW][dD]F)), the “Binding Activity on ET Receptor (R. act.) ETA” value in assay [1] came out at 8.3. For the same molecule, the “Binding Activity on ET Receptor (R. act.) ET8 *2” value in assay [2] is recorded as 7.1.

In the case of `CC(C)C[C@@H]1NC(=O)[C@@H](CC(C)C)NC(=O)[C@H](CC(=O)O)NC(=O)[C@H]2CCCN2C(=O)[C@@H](CC(=O)O)NC(=O)[C@@H](Cc2c[nH]c3ccccc23)NC1=O` [Example 24, Cyclo[--D--Asp--D--Pro--Asp--D--Leu--Leu--D--Trp--]] (cyclo(D[dL]L[dW][dD][dP])), in assay [1], the “Binding Activity on ET Receptor (R. act.) ETA” value is on record as 1.7.

As for `CC(C)C[C@@H]1NC(=O)[C@@H](CC(C)C)NC(=O)[C@@H]2CCCN2C(=O)[C@H](CC(=O)O)NC(=O)[C@@H](CC(=O)O)NC(=O)[C@@H](Cc2c[nH]c3ccccc23)NC1=O` [Example 30, Cyclo[--D--Asp--Asp--Pro--D--Leu--Leu--D--Trp--]] (cyclo(DP[dL]L[dW][dD])), the “Binding Activity on ET Receptor (R. act.) ETA” value in assay [1] is reported as 4.4. In addition, in assay [2], the “Binding Activity on ET Receptor (R. act.) ET8 *2” value amounted to 9.1.

For the molecule `CC(C)C[C@@H]1NC(=O)[C@@H](CC(C)C)NC(=O)[C@H]2CCCN2C(=O)[C@H](CC(=O)O)NC(=O)[C@@H](CC(=O)O)NC(=O)[C@@H](Cc2c[nH]c3ccccc23)NC1=O` [Example 31, Cyclo[--D--Asp--Asp--D--Pro--D--Leu--Leu--D--Trp--]] (cyclo(D[dP][dL]L[dW][dD])), the “Binding Activity on ET Receptor (R. act.) ETA” value in assay [1] was 2.6. Further, the “Binding Activity on ET Receptor (R. act.) ET8 *2” value in assay [2] was found to be 1.0.

On to `CC(C)C[C@@H]1NC(=O)[C@H](CC(=O)O)NC(=O)[C@@H](CC(=O)O)NC(=O)[C@@H](Cc2c[nH]c3ccccc23)NC(=O)[C@H](CC(C)C)NC(=O)[C@@H](CC(C)C)NC1=O` [Example 32, Cyclo[--D--Asp--Asp--Leu--D--Leu--Leu--D--Trp--]] (cyclo(DL[dL]L[dW][dD])), for which, in assay [1], the “Binding Activity on ET Receptor (R. act.) ETA” value is given as 4.0. For the same molecule, the “Binding Activity on ET Receptor (R. act.) ET8 *2” value in assay [2] stood at 7.7.

For the molecule `CC(C)C[C@@H]1NC(=O)[C@@H](CC(C)C)NC(=O)[C@H](Cc2c[nH]c3ccccc23)NC(=O)[C@H](CC(=O)O)NC(=O)[C@@H](CC(=O)O)NC(=O)[C@@H](Cc2c[nH]c3ccccc23)NC1=O` [Example 33, Cyclo[--D--Asp--Asp--Trp--D--Leu--Leu--D--Trp--]] (cyclo(DW[dL]L[dW][dD])), the “Binding Activity on ET Receptor (R. act.) ETA” value in assay [1] was determined as 2.9. Further, the “Binding Activity on ET Receptor (R. act.) ET8 *2” value in assay [2] was 5.6.

With `CC(C)C[C@@H]1NC(=O)[C@@H](CC(C)C)NC(=O)[C@H](CC(=O)O)NC(=O)CN(C)C(=O)[C@@H](CC(=O)O)NC(=O)[C@@H](Cc2c[nH]c3ccccc23)NC1=O` [Example 46, Cyclo[--D--Asp--Sar--Asp--D--Leu--Leu--D--Trp--]] (cyclo(D[dL]L[dW][dD][Sar])), in assay [1], the “Binding Activity on ET Receptor (R. act.) ETA” value was 8.1. Also, in assay [2], the “Binding Activity on ET Receptor (R. act.) ET8 *2” value was 75.

In the case of `CC(C)C[C@@H]1NC(=O)[C@@H](CC(C)C)NC(=O)[C@H](CC(=O)O)NC(=O)[C@H](CC(C)C)N(C)C(=O)[C@@H](CC(=O)O)NC(=O)[C@@H](Cc2c[nH]c3ccccc23)NC1=O` [Example 47, Cyclo[--D--Asp--N--MeLeu--Asp--D--Leu--Leu--D--Trp--]] (cyclo(D[dL]L[dW][dD][NMeL])), in assay [1], the “Binding Activity on ET Receptor (R. act.) ETA” value is listed as 6.8. The “Binding Activity on ET Receptor (R. act.) ET8 *2” value in assay [2] was determined as 17.

For the molecule `CC(C)C[C@@H]1NC(=O)[C@@H](CC(C)C)NC(=O)[C@H](CC(=O)O)NC(=O)[C@H](Cc2ccccc2)N(C)C(=O)[C@@H](CC(=O)O)NC(=O)[C@@H](Cc2c[nH]c3ccccc23)NC1=O` [Example 48, Cyclo[--D--Asp--N--MePhe--Asp--D--Leu--Leu--D--Trp--]] (cyclo(D[dL]L[dW][dD][NMeF])), in assay [1], the “Binding Activity on ET Receptor (R. act.) ETA” value was 2.7. The “Binding Activity on ET Receptor (R. act.) ET8 *2” value in assay [2] is listed as 13.

Turning to `CC(C)C[C@@H]1NC(=O)[C@@H](C(C)(C)C)NC(=O)[C@H](CC(=O)O)NC(=O)[C@H](Cc2c[nH]c3ccccc23)NC(=O)[C@@H](CC(=O)O)NC(=O)[C@@H](Cc2c[nH]c3ccccc23)NC1=O` [Example 53, cyclo[-D-Asp-Trp-Asp-D-tLeu-Leu-D-Trp-]] (cyclo(D[dTle]L[dW][dD]W)), in assay [1], the “Binding Activity on ET Receptor (R. act.) ETA” value is 64. Besides, the “Binding Activity on ET Receptor (R. act.) ET8 *2” value in assay [2] is reported as 460.

As for `CC(C)C[C@@H]1NC(=O)[C@@H](CC(C)C)NC(=O)[C@H](CC(=O)O)NC(=O)[C@H](Cc2c[nH]c3ccccc23)N(C)C(=O)[C@@H](CC(=O)O)NC(=O)[C@@H](Cc2c[nH]c3ccccc23)NC1=O` [Example 67, Cyclo[--D--Asp--N--MeTrp--Asp--D--Leu--Leu--D--Trp--]] (cyclo(D[dL]L[dW][dD][NMeW])), the “Binding Activity on ET Receptor (R. act.) ETA” value in assay [1] is on record as 9.1. The “Binding Activity on ET Receptor (R. act.) ET8 *2” value in assay [2] was 30.

`CC(C)C[C@@H]1NC(=O)[C@@H](CC(C)C)NC(=O)[C@H](CC(=O)O)NC(=O)[C@H](CCCNC(=O)Cc2ccccc2)NC(=O)[C@@H](CC(=O)O)NC(=O)[C@@H](Cc2c[nH]c3ccccc23)NC1=O` [Example 80, cyclo[-D-Asp-Orn(COCH2 Ph)-AsP-D-Leu-Leu-D-Trp-]] (cyclo(D[dL]L[dW][dD][Orn](PhAc))): in assay [1], the “Binding Activity on ET Receptor (R. act.) ETA” value was 260. Moreover, in assay [2], the “Binding Activity on ET Receptor (R. act.) ET8 *2” value was 380.

For the molecule `CC(C)C[C@@H]1NC(=O)[C@@H](CC(C)C)NC(=O)[C@H](CC(=O)O)NC(=O)[C@H](CCCNC(=O)Cc2c[nH]c3ccccc23)NC(=O)[C@@H](CC(=O)O)NC(=O)[C@@H](Cc2c[nH]c3ccccc23)NC1=O` [Example 82, cyclo[-D-Asp-Orn(COCH2 -Ind)-Asp-D-Leu-Leu-D-Trp-]] (cyclo(D[dL]L[dW][dD][Orn](X3))), the “Binding Activity on ET Receptor (R. act.) ETA” value in assay [1] amounted to 240. Moreover, the “Binding Activity on ET Receptor (R. act.) ET8 *2” value in assay [2] amounted to 500.
